“Also recorded” adds a separate entry of the source.
Tests used:
UptA = UptA (Bacillus subtilis, UniProt O31823); assay: Native MS of antibiotic binding to UptA; conditions: 2.5 µM UptA, 10 µM C55-P, antibiotic up to 100 µM (polymyxins 100 µM), 0.05% LDAO, 200 mM ammonium acetate, 75 V
Method: We next investigate how UptA and its complex with C55-P interact with a range of cell-wall targeting antibiotics including the lipopeptides daptomycin and amphomycin. […] We investigated whether daptomycin affects C55-P binding to UptA by recording spectra for solutions containing 2.5 µM UptA, 10 µM C55-P, and different concentrations of daptomycin.
(§1) Amphomycin and derivatives are known to kill bacteria by forming complexes with free C55-P ([46]), however, whether or not this involves a direct interaction with a protein cellular target is not known. We therefore investigated how amphomycin affects the UptA:C55-P complex. We recorded spectra for solutions containing 2.5 µM UptA, 10 µM C55-P and then equilibrated aliquots with increasing concentrations of amphomycin.
The amphiphilic nature of daptomycin and amphomycin raises the possibility that these lipopeptide antibiotics may promiscuously bind to UptA in a nonspecific manner. We probe this possibility by recording spectra for UptA:C55-P solutions in the presence of 100 µM polymyxin B and 100 µM polymyxin E. These polymyxins are membrane-disrupting lipopeptides that target the outer membrane lipopolysaccharides in Gram-negative bacteria ([47]) but without a known affinity for C55-P or UptA.
To this end, we prepared UptA:C55-P mixtures and then equilibrated aliquots with bacitracin and vancomycin.
(§2) Detailed experimental procedures are provided in SI Appendix. Briefly, UptA (wild type and mutants) was expressed in E. coli C43(DE3) cells (Lucigen) with GFP fusion on the C-terminus and solubilized from the membrane fraction by n-dodecyl-β-D-maltopyranoside (DDM). After purification by affinity chromatography, the GFP was cleaved by TEV protease and removed, and UptA was further purified by size-exclusion chromatography in a buffer containing 20 mM Tris-HCl (pH 8.0), 200 mM NaCl, 0.02% DDM. Before measurements, proteins were buffer-exchanged into 0.05% LDAO, 200 mM ammonium acetate at the desired pH using a centrifugal buffer exchange device (Micro Bio-Spin 6, Bio-Rad). Stock solutions of lipids were prepared from chloroform/methanol solution by evaporating aliquots of known volume in a SpeedVac. After drying, the lipid films were weighed and resuspended to a final concentration of 0.5 mM in 200 mM ammonium acetate and 0.05% LDAO by vertexing. Stock solutions of 0.5 mM amphomycin, aspartocin D, daptomycin, polymyxin B, polymyxin E, and bacitracin were made in the same buffer. All experiments were repeated three times from newly prepared stock solutions. Native mass spectrometry was performed on a Q-Exactive hybrid quadrupole-Orbitrap mass spectrometer (Thermo Fisher Scientific, Bremen, Germany), and lipid identification was performed on an Orbitrap Eclipse Tribrid mass spectrometer (Thermo). […]

UptA:C55-P complex = assay: Native MS of UptA:C55-P complex in the presence of antibiotics; type: binding, Bacillus subtilis; conditions: 2.5 µM UptA, 10 µM C55-P; for effect of antibiotic on UptA:C55-P complex (in words): 0 to 100 µM antibiotic, 75 V, mean of three independent replicates
Method: as §1
(A) Mass spectra (6+ charge state) for solutions containing 2.5 µM UptA and 10 µM C55-P incubated with 0 to 100 µM amphomycin. (B) Relative intensity of C55-P bound to UptA in the presence of amphomycin and daptomycin. The bar represents the mean of three independent replicates shown as data points and error bars are SD. […] (C) Fraction of C55-P bound to UptA in the presence of cell wall targeting antibiotics. Each sample contains 2.5 µM UptA, 10 µM C55-P and 100 µM of indicated antibiotic, and spectra were acquired using the same instrument settings and collisional activation of 75 V. The bar represents the mean of three independent replicates shown as data points, and the error bar represents SD. […]
as §2

[1] = system: B. subtilis strains bearing R112 and R118 mutations on UptA; conditions: cited from earlier work
Source text: Conserved arginine residues in the putative membrane reentrant loops of E. coli DedA proteins YqjA (R130) and YghB (R136) are important for the cellular role of these proteins ([36]). […] How these residues impact substrate interactions, however, is not known. […] Despite the combined cellular pool of C55-PP and C55-P being limited to ~1.5 × 10^5 molecules per cell ([56]), they mediate the transport of glycan-bearing components of the cell wall peptidoglycan, teichoic acid, and capsular polysaccharid ...

[2] = ref 46 (ref 23, 46, 60, 61); cited from earlier work
Source text: To this end, we prepared UptA:C55-P mixtures and then equilibrated aliquots with bacitracin and vancomycin. […] In line with the specificity of bacitracin for C55-PP rather than C55-P, this antibiotic modestly ...

Chain of UptA (O31823 whole entry): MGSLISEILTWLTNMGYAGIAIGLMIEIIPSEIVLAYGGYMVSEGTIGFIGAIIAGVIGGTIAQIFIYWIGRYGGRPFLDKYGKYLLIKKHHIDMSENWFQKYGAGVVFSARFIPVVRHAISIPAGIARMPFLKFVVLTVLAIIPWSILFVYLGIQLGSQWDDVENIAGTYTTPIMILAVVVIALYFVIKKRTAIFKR

Q: What does the source list for amphomycin?
A: binding of antibiotic to UptA (in words) (UptA): peaks consistent with amphomycin binding to UptA; also recorded: bind to UptA with higher affinity than other cell-wall targeting antimicrobial peptides such as bacitracin and vancomycin; effect of antibiotic on UptA:C55-P complex (in words) (UptA:C55-P complex): peak intensities of the UptA:C55-P complex reduce with respect to an increase in the concentration of amphomycin; also recorded: induce dissociation of UptA:C55-P complexes; also recorded: bind directly to UptA and induce dissociation of the UptA:C55-P complex; also recorded: can directly inhibit UptA function by out-competing the substrate for the protein binding; effect of antibiotic on UptA:C55-P complex (in words) (UptA:C55-P complex; listed as Amphomycin): destabilizes the UptA:C55-P complex and sequesters C55-P; UptA:C55-P complex remaining at 10-fold molar excess of antibiotic (in words) (UptA:C55-P complex; 10-fold molar excess of amphomycin): little-to-no UptA:C55-P complexes remained; susceptibility of B. subtilis cells with UptA R112 and R118 mutations (in words) [1]: more susceptible to inhibition by amphomycin; complex formation with free C55-P (in words) [2]: known propensity to form complexes with free C55-P molecules

— paper PMC11474028, “Lipopeptide antibiotics disrupt interactions of undecaprenyl phosphate with UptA” (Proceedings of the National Academy of Sciences of the …, 2024)
